Series [1] concerns the target T1, Sterol O-acyltransferase 1 (Mus musculus, UniProt Q61263).
T1 sequence (Q61263 whole entry): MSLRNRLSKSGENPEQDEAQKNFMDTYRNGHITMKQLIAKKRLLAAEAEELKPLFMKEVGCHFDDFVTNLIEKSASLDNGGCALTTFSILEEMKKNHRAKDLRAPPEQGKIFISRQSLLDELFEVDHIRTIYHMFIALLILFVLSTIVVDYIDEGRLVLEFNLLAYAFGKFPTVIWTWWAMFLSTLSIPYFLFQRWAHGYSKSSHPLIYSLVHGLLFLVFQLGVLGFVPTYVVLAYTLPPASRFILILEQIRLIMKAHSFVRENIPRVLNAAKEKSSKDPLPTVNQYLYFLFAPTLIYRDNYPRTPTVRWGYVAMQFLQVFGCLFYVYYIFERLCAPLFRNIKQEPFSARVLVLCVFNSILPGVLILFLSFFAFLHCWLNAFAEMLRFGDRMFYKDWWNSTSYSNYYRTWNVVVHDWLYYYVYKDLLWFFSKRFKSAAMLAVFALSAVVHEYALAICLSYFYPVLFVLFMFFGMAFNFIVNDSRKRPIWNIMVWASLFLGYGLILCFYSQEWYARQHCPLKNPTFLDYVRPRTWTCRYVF
Briefly: Inhibition of acyl coenzyme A:cholesterol acyltransferase (ACAT) in J774 Macrophage cell culture by using J774 assay. The format is cell-based.

Series [2] in a line: Partition coefficient (logP). The format is physicochemical. To be noted: octanol/water.
Series [3] has as its target T2, Sterol O-acyltransferase 1 (Rattus norvegicus, UniProt O70536).
T2 sequence (O70536 whole entry): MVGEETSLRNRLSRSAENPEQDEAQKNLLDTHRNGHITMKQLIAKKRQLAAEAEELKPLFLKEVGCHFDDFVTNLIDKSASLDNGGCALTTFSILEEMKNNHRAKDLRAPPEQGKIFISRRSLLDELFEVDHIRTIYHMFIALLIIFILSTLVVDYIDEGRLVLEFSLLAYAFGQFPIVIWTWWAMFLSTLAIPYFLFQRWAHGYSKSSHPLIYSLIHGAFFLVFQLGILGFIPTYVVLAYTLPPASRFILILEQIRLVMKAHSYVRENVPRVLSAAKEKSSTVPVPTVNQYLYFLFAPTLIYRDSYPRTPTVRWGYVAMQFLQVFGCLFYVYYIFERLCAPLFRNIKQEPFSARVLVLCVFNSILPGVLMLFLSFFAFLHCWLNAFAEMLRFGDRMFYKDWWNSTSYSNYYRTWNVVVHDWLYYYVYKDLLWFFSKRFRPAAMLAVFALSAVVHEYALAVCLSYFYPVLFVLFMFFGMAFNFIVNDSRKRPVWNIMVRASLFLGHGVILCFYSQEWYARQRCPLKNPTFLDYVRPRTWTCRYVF
Briefly: In vitro inhibition of acyl coenzyme A:cholesterol acyltransferase (ACAT) in rat hepatic microsomes by using AIV assay. Set-up: species or system Liver.

Series [4] deals with T2, Sterol O-acyltransferase 1. Briefly: In vitro inhibition of ACYL CoA:Cholesterol Acyltransferase (ACAT) in rat hepatic microsomes was measured by using AIV assay. Further details: species or system Liver; call rule not given here.
The target in series [5] is T2, Sterol O-acyltransferase 1. Briefly: In vitro inhibition of Acyl coenzyme A:cholesterol acyltransferase (ACAT) in rat hepatic microsomes was measured by using AIV assay; IA means the compound was inactive. Further details: species or system Liver.
The target of series [6] is T1, Sterol O-acyltransferase 1. Briefly: Inhibition of Acyl coenzyme A:cholesterol acyltransferase (ACAT) in J774 Macrophage cell culture was measured by using J774 assay; IA means the compound was inactive. Format: cell-based.
In series [7] the target is T1, Sterol O-acyltransferase 1. Briefly: Inhibition of Acyl coenzyme A:cholesterol acyltransferase (ACAT) in J774 Macrophage cell culture was measured by using J774 assay; IA means inactive. Format: cell-based.

As for `CCCCCCCN(CCCCCSc1nc(N)c2c[nH]nc2n1)C(=O)Nc1ccc(F)cc1F`, the IC50 in series [1] came out at 72.5 µM; in series [3] (read-out: IC50) it was 4.23 µM. The same compound registered a lipophilicity (logP) in series [2] of 5.74.
Consider `CCCCCCN(CCCCCSc1nc2ccccc2n1C)C(=O)Nc1ccc(F)cc1F`, for which the IC50 in series [1] was 3.02 µM; in series [3] (read-out: IC50), 2.49 µM. For the same compound, in series [2], the logP was found to be 7.47.
For `CCCCCCN(CCOCCSc1nc2c[nH]cnc-2n1)C(=O)NC(C)C`, in that order: 60 µM, 2 µM and 3.72.
On to `CCCCCCCN(CCCCCSc1nnc(-c2ccccc2)c(-c2ccccc2)n1)C(=O)Nc1ccc(F)cc1F`, for which the values for the IC50 in series [1] and in series [3] (read-out: IC50) were 10.6 µM and 0.44 µM, respectively. In series [2], this compound showed a logP of 8.72.
For `CCCCCCCN(CCCCCSc1n[nH]c(-c2ccccc2)n1)C(=O)Nc1ccc(F)cc1F`, the IC50 amounted to 4.18 µM in series [1] and 4 µM in series [3] (read-out: IC50). The compound further returned a logP in series [2] of 6.78.
In the case of `CCCCCCCN(CCCCCSc1nc(-c2ccccc2)c(-c2ccccc2)n1-c1ccccc1)C(=O)Nc1ccc(F)cc1F`, the half-inhibitory concentration (IC50) in series [1] was 54.5 µM; in series [3], “Not Active”.
For the compound `CCCCCCCN(CCCCCSc1nc(O)c2ccccc2n1)C(=O)Nc1ccc(F)cc1F`, the IC50 in series [1] came to 11 µM; in series [3] (read-out: IC50), 4 µM. Further, the log partition coefficient (logP) in series [2] is 6.17.
For `CCCCCCCN(CCCCCSc1nc(O)cc(Cc2ccccc2)n1)C(=O)NC(C)C`, the values for the IC50 in series [1] and in series [3] (read-out: IC50) were 25 µM and 9.2 µM, respectively. In series [2], the logP was 7.4.
Consider `CCCCCCCN(CCCCCSc1nc(-c2ccccc2)c(-c2ccccc2)n1C)C(=O)Nc1ccc(F)cc1F`, for which the IC50 in series [1] worked out at 3.8 µM.
Regarding `CCCCCCCN(CCCCCSc1[nH]cnc2nncc1-2)C(=O)Nc1ccc(F)cc1F`, the 50% inhibitory concentration (IC50) in series [1] amounted to 3.31 µM; in series [3] (read-out: IC50), 0.71 µM. The compound also returned a logP in series [2] of 5.6.
The like results for `CCCCCCCN(CCCCCSc1[nH]cnc2ncnc1-2)C(=O)Nc1ccc(F)cc1F` were, in that order, 5.32 µM, 0.2 µM and 5.32.
For `CCCCCCN(CCCCCSc1nc2ccccc2[nH]1)C(=O)Nc1ccc(F)cc1F`, in that order: 3.1 µM, 0.5 µM and 7.29.
The like results for `CCCCCCN(CCCCCSc1nc2cc([N+](=O)[O-])ccc2[nH]1)C(=O)Nc1ccc(F)cc1F` were, in that order, 8.33 µM, 2 µM and 7.19.
On to `CCCCCCCN(CCCCCOC1=NC(S)=NC1(c1ccccc1)c1ccccc1)C(=O)NC(C)C`, for which the IC50 came out at 0.09 µM in series [4] and 2.79 µM in series [1].
Take `CCCCCCN(CCCCCSc1nc2ccccc2o1)C(=O)Nc1ccc(F)cc1F`: the figures for the IC50 in series [1] and in series [3] (read-out: IC50) were 3.5 µM and 51 µM, respectively. The compound further had a logP in series [2] of 7.18.
With `CCCCCCCN(CCCCCSc1ncc[nH]1)C(=O)Nc1ccc(F)cc1F`, 5.5 µM corresponded to half-maximal inhibition in series [1] (IC50).
In the case of `CCCCCCCN(CCCCCSc1[nH]cnc2nncc1-2)C(=O)NC(C)C`, the values for the IC50 in series [1] and in series [3] (read-out: IC50) were 4.35 µM and 7.13 µM, respectively. The same compound yielded a logP in series [2] of 5.
Regarding `CCCCCCN(CCCCCSc1nc2cc(OCC)ccc2s1)C(=O)Nc1ccc(F)cc1F`, the IC50 in series [1] is 4.54 µM; in series [5], “Not Active”. The log partition coefficient (logP) in series [2] came out at 8.46.
Regarding `CCCCCCN(CCCCCSc1nc2ccc[nH]c-2n1)C(=O)NC(C)C`, the values for the IC50 in series [1] and in series [3] (read-out: IC50) were 7.1 µM and 7.15 µM, respectively. In series [2], this compound registered a logP of 5.62.
With `CCCCCCCN(CCCCCSc1ncccn1)C(=O)Nc1ccc(F)cc1F`, the figures for the IC50 in series [1] and in series [3] (read-out: IC50) were 4.37 µM and 3.3 µM, respectively. This compound gave a log partition coefficient (logP) in series [2] of 5.41.
Turning to `CCCCCCN(CCCCCSc1nc2c(=O)n(C)c(=O)n(C)c2[nH]1)C(=O)NC(C)C`, the IC50 turned out to be 1.53 µM in series [1] and 3.6 µM in series [3] (read-out: IC50). In addition, the logP in series [2] is 5.1.
As to `CCCCCCCN(CCCCCSC1N=C(c2ccccc2)c2ccccc2NC1=O)C(=O)NC(C)C` (stereo not drawn), the half-maximal inhibitory concentration (IC50) in series [1] amounted to 6.53 µM. Further, the logP in series [2] was found to be 6.99.
Turning to `CCCCCCN(CCCCCSc1nc2ccccc2s1)C(=O)Nc1ccc(F)cc1F`, the values for the IC50 in series [1] and in series [3] (read-out: IC50) were 2.73 µM and 4 µM, respectively. Also, the logP in series [2] is 7.78.
For `CCCCCCN(CCCCCSc1nc2cc(C)ccc2[nH]1)C(=O)Nc1ccc(F)cc1F`, the IC50 in series [1] was 2.06 µM; in series [3] (read-out: IC50) it was 1 µM. The logP in series [2] was determined as 7.79.
Regarding `CCCCCCN(CCCCCSc1nc2c([nH]1)CCCC2)C(=O)Nc1ccc(F)cc1F`, the figures for the IC50 in series [1] and in series [3] (read-out: IC50) were 2.58 µM and 0.81 µM, respectively. The compound also showed a logP in series [2] of 6.81.
For `CCCCCCN(CCCCCSc1nc2c[nH]cnc-2n1)C(=O)NC(C)C`, in that order: 19.1 µM, 23.7 µM and 4.66.
For `CCCCCCCN(CCCCCSc1ccccn1)C(=O)Nc1ccc(F)cc1F`, in that order: 4.51 µM, 4 µM and 6.41.
For `CCCCCCCN(CCCCCSc1nc(N)c2c[nH]nc2n1)C(=O)NC(C)C`, the logP in series [2] came to 5.14. Besides, the IC50 result in series [6] and in series [3] was “Not Active” throughout.
As to `CCCCCCN(CCOCCSc1nc2c[nH]cnc-2n1)C(=O)Nc1ccc(F)cc1F`, the lipophilicity (logP) in series [2] worked out at 4.32. Besides, in series [3], the IC50 entry is on record as “Not Active”.
`CCCCCCCN(CCCCCSC1N=C(c2ccccc2)c2ccccc2NC1=O)C(=O)Nc1ccc(F)cc1F` (stereo not drawn) returned an IC50 in series [1] of 6.96 µM. Besides, the logP in series [2] was found to be 7.59.
In the case of `CCCCCCCN(CCCCCSc1nc(-c2ccccc2)c[nH]1)C(=O)Nc1ccc(F)cc1F`, the IC50 in series [1] was found to be 1.6 µM.
With `CCCCCCN(CCCCCSc1nc2c[nH]cnc-2n1)C(=O)Nc1ccc(F)cc1F`, the IC50 entry in series [7] is “Not Active”; in series [3] (read-out: IC50), 0.86 µM. In series [2], this compound displayed a lipophilicity (logP) of 5.26.
With `CCCCCCCN(CCCCCSc1nc[nH]n1)C(=O)Nc1ccc(F)cc1F`, the IC50 came to 27.3 µM in series [1] and 5 µM in series [3] (read-out: IC50).
With `CCCCCCCN(CCCCCSC1=NC(=O)C(c2ccccc2)(c2ccccc2)N1)C(=O)NC(C)C`, the IC50 was 2.14 µM in series [1] and 2.79 µM in series [3] (read-out: IC50).
Take `CCCCCCCN(CCCCCSc1nc(N)cc(O)n1)C(=O)NC(C)C`: the 50% inhibitory concentration (IC50) in series [1] worked out at 9.3 µM; in series [3] (read-out: IC50) it was 74 µM. Further, in series [2], the logP amounted to 5.61.
Turning to `CCCCCCCN(CCCCCSc1nc(-c2ccccc2)cn1-c1ccccc1)C(=O)Nc1ccc(F)cc1F`, the IC50 in series [1] was 6.02 µM; in series [3] (read-out: IC50), 7.2 µM.
Regarding `CCCCCCN(CCCCCSc1nc2ccc[nH]c-2n1)C(=O)Nc1ccc(F)cc1F`, the IC50 is 5.47 µM in series [1] and 3.6 µM in series [3] (read-out: IC50). Besides, in series [2], the logP turned out to be 6.22.
The like results for `CCCCCCCN(CCCCCSc1[nH]cnc2ncnc1-2)C(=O)NC(C)C` were, in that order, 4.72 µM, 29.7 µM and 4.72.
The like results for `CCCCCCCN(CCCCCSc1nnc(-c2ccccc2)n1-c1ccccc1)C(=O)Nc1ccc(F)cc1F` were, in that order, 4.8 µM, 19 µM and 8.64.

The IC50 is the concentration that inhibits the measured activity by half. As usually defined, the logP is a log measure of how a compound divides between an organic and an aqueous phase. High values mean a more lipophilic compound, low ones a more hydrophilic compound.

(Values after ChEMBL document CHEMBL1128038, “Acyl CoA:cholesterol acyltransferase (ACAT) inhibitors: ureas bearing heterocyclic groups bioisosteric for an imidazole” (Bioorg Med Chem Lett, 1995).)
